Measured values taken from ChEMBL document CHEMBL4813991, “Design, synthesis and bioactivity study on 5-phenylfuran derivatives as potent reversal agents against P-glycoprotein-mediated multidrug resistance in MCF-7/ADR cell” (Eur J Med Chem, 2021).
Activity calls are given as the source filed them. No cut-off for these calls is given here.

How the values were obtained:
MCF7 [1] = assay: Antiproliferative activity against human MCF7 cells assessed as inhibition rate at 10 uM incubated for 48 hrs by CCK-8 assay; assay type: functional
[2] = Antiproliferative activity against human MCF7/ADR cells assessed as inhibition rate at 10 uM incubated for 48 hrs by CCK-8 assay; assay type: functional; conditions: NCI/ADR-RES
[3] = Antiproliferative activity against human MCF7/ADR cells assessed as inhibition rate at 50 uM incubated for 48 hrs by CCK-8 assay; assay type: functional; conditions: NCI/ADR-RES
MCF7 [4] = assay: Antiproliferative activity against human MCF7 cells assessed as inhibition rate at 50 uM incubated for 48 hrs by CCK-8 assay; assay type: functional
NCI/ADR-RES [5] = assay: Antiproliferative activity against human MCF7/ADR cells incubated for 48 hrs by CCK-8 assay; assay type: functional, cell-based
[6] = molecular target: T1, ATP-dependent translocase ABCB1 (Homo sapiens, UniProt P08183); assay: Inhibition of P-glycoprotein in human MCF7/ADR cells assessed as reversal fold by measuring reduction in vincristine IC50 at 5 uM incubated for 48 hrs by CCK-8 assay; assay type: cell-based; conditions: nci/adr-res
T1 sequence (P08183 whole entry): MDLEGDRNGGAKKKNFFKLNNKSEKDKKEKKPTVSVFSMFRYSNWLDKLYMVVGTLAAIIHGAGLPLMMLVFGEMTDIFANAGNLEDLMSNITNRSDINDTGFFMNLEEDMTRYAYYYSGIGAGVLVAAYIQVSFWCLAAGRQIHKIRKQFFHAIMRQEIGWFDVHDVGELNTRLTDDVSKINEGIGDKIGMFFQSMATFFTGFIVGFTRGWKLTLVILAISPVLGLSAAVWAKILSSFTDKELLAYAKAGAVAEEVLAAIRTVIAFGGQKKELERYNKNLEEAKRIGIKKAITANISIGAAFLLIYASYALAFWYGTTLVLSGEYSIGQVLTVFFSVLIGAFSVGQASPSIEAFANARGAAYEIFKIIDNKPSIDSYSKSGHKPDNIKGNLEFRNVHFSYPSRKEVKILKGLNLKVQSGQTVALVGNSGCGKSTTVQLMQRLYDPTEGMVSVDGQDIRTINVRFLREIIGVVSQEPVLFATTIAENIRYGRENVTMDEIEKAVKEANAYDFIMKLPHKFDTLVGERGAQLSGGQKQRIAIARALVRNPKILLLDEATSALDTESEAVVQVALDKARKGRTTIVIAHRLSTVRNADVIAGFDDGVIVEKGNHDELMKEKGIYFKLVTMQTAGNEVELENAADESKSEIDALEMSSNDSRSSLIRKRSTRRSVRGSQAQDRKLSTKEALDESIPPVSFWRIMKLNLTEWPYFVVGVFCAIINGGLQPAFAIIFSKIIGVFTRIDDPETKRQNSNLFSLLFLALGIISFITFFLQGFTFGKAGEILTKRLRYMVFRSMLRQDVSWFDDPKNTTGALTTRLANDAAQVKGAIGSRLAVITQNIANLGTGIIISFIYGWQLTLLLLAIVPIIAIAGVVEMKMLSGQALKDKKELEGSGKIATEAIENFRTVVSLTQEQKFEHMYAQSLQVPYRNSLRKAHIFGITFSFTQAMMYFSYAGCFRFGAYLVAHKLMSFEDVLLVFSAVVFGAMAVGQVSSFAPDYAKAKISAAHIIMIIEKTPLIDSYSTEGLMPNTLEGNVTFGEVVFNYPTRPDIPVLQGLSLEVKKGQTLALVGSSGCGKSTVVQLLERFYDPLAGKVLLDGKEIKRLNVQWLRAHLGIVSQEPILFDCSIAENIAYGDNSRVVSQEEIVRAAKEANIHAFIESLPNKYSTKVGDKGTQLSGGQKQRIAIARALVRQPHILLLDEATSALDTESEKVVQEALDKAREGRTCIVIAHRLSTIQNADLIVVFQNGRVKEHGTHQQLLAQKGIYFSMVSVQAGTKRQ

[7] = molecular target: T1, ATP-dependent translocase ABCB1; assay: Inhibition of P-glycoprotein in human MCF7/ADR cells assessed as reversal fold by measuring reduction in paclitaxel IC50 at 5 uM incubated for 48 hrs by CCK-8 assay; assay type: cell-based; conditions: nci/adr-res
[8] = molecular target: T1, ATP-dependent translocase ABCB1; assay: Inhibition of P-glycoprotein in human MCF7/ADR cells assessed as reversal fold by measuring reduction in daunorubicin IC50 at 5 uM incubated for 48 hrs by CCK-8 assay; assay type: cell-based; conditions: nci/adr-res
NCI/ADR-RES [9] = assay: Effect on P-glycoprotein expression in human MCF7/ADR cells upto 10 uM after 48 hrs by Western blot analysis; assay type: functional, cell-based; conditions: dose microM <=10, time 48.0 hrs
[10] = molecular target: T1, ATP-dependent translocase ABCB1; assay: Inhibition of P-glycoprotein in human MCF7/ADR cells assessed as rhodamine-123 accumulation by measuring fluorescence intensity at 1 uM measured after 30 mins by flow cytometry analysis; assay type: cell-based; conditions: nci/adr-res, 0.5 h
[11] = molecular target: T1, ATP-dependent translocase ABCB1; assay: Inhibition of P-glycoprotein in human MCF7/ADR cells assessed as reversal fold by measuring reduction in doxorubicin IC50 at 0.05 uM incubated for 48 hrs by CCK-8 assay; assay type: cell-based; conditions: nci/adr-res
[12] = molecular target: T1, ATP-dependent translocase ABCB1; assay: Inhibition of P-glycoprotein in human MCF7/ADR cells assessed as rhodamine-123 accumulation by measuring fluorescence intensity at 0.1 uM measured after 30 mins by flow cytometry analysis; assay type: cell-based; conditions: nci/adr-res, 0.5 h
[13] = molecular target: T1, ATP-dependent translocase ABCB1; assay: Inhibition of P-glycoprotein in human MCF7/ADR cells assessed as reversal fold by measuring reduction in doxorubicin IC50 at 0.5 uM incubated for 48 hrs by CCK-8 assay; assay type: cell-based; conditions: nci/adr-res
[14] = molecular target: T1, ATP-dependent translocase ABCB1; assay: Inhibition of P-glycoprotein in human MCF7/ADR cells assessed as rhodamine-123 accumulation by measuring fluorescence intensity at 10 uM measured after 30 mins by flow cytometry analysis; assay type: cell-based; conditions: nci/adr-res, 0.5 h

Compound	inhibition at 10 µM (MCF7 [1]) [%]	inhibition at 50 µM [3] [%]	inhibition at 50 µM (MCF7 [4]) [%]	further results
COc1ccc(CCN(C)CCCC(C#N)(c2ccc(OC)c(OC)c2)C(C)C)cc1OC (stereo unspecified)	8.3			inhibition at 10 µM [2]: 25%
CCCCOc1ccc(-c2ccc(C(=O)N3CCc4cc(OC)c(OC)cc4C3)o2)cc1		25.4	21	
COc1cc2c(cc1OC)CN(C(=O)c1ccc(-c3cc(OC)c(OC)c(OC)c3)o1)CC2	30	51.2	64.7	inhibition at 10 µM [2]: 19.6%
CC[C@]1(O)C[C@H]2CN(CCc3c([nH]c4ccccc34)[C@@](C(=O)OC)(c3cc4c(cc3OC)N(C=O)[C@H]3[C@@](O)(C(=O)OC)[C@H](OC(C)=O)[C@]5(CC)C=CCN6CC[C@]43[C@@H]65)C2)C1 [VINCRISTINE]				IC50 (NCI/ADR-RES [5]): 10.1 µM; fold change (FC) [6]: 62.8
COc1ccc(-c2ccc(C(=O)N3CCc4cc(OC)c(OC)cc4C3)o2)cc1OC	17.6	26.7	41.8	
COc1cc2c(cc1OC)CN(C(=O)c1ccc(-c3ccc(OCC(C)C)cc3)o1)CC2		11.9	19.2	
CC(=O)O[C@H]1C(=O)[C@@]2(C)[C@H]([C@H](OC(=O)c3ccccc3)[C@]3(O)C[C@H](OC(=O)[C@H](O)[C@@H](NC(=O)c4ccccc4)c4ccccc4)C(C)=C1C3(C)C)[C@]1(OC(C)=O)CO[C@@H]1C[C@@H]2O [PACLITAXEL]				IC50 (NCI/ADR-RES [5]): 58.7 µM; fold change (FC) [7]: 22.6
COc1cc(OC)cc(-c2ccc(C(=O)N3CCc4cc(OC)c(OC)cc4C3)o2)c1	19.8	52.9	81.8	inhibition at 10 µM [2]: 21.7%
CCOc1ccc(-c2ccc(C(=O)N3CCc4cc(OC)c(OC)cc4C3)o2)cc1		8.1	20.5	
COc1cccc(-c2ccc(C(=O)N3CCc4cc(OC)c(OC)cc4C3)o2)c1		1.5	-9.9	
COc1cc2c(cc1OC)CN(C(=O)c1ccc(-c3ccc(OC(F)(F)F)cc3)o1)CC2		12.7	-4.1	
COc1cc2c(cc1OC)CN(C(=O)c1ccc(-c3cccc(OC)c3OC)o1)CC2		10	39.4	
COc1ccc(-c2ccc(C(=O)N3CCc4cc(OC)c(OC)cc4C3)o2)c(OC)c1	15.4	59.8	49.3	inhibition at 10 µM [2]: 28.4%
COc1ccc(OC)c(-c2ccc(C(=O)N3CCc4cc(OC)c(OC)cc4C3)o2)c1	11.4	68.2	63.6	inhibition at 10 µM [2]: 23.2%
COc1cccc2c1C(=O)c1c(O)c3c(c(O)c1C2=O)C[C@@](O)(C(C)=O)C[C@@H]3O[C@H]1C[C@H](N)[C@H](O)[C@H](C)O1 [DAUNORUBICIN]				IC50 (NCI/ADR-RES [5]): 51.6 µM; fold change (FC) [8]: 2.8
CCCOc1ccc(-c2ccc(C(=O)N3CCc4cc(OC)c(OC)cc4C3)o2)cc1		32.3	36.2	
COc1ccc(-c2ccc(C(=O)N3CCc4cc(OC)c(OC)cc4C3)o2)cc1		-2.1	20.4	
COc1cc2c(cc1OC)CN(C(=O)c1ccc(-c3ccccc3OC)o1)CC2	55.9	36.9	66	
COc1cc2c(cc1OC)CN(C(=O)c1ccc(-c3ccc(SC(C)C)cc3)o1)CC2		39	33.6	
COc1cc2c(cc1OC)CN(C(=O)c1ccc(-c3ccc(Oc4ccccc4)cc3)o1)CC2	7	57	45.4	inhibition at 10 µM [2]: 27.6%
C/C=C/C[C@@H](C)[C@@H](O)[C@H]1C(=O)N[C@@H](CC)C(=O)N(C)CC(=O)N(C)[C@@H](CC(C)C)C(=O)N[C@@H](C(C)C)C(=O)N(C)[C@@H](CC(C)C)C(=O)N[C@@H](C)C(=O)N[C@H](C)C(=O)N(C)[C@@H](CC(C)C)C(=O)N(C)[C@@H](CC(C)C)C(=O)N(C)[C@@H](C(C)C)C(=O)N1C [CYCLOSPORINE]	19.3			inhibition at 10 µM [2]: 22.7%
COc1cc2c(cc1OC)CN(C(=O)c1ccc(-c3ccc(OC(C)(C)C)cc3)o1)CC2		28.9	33.8	
COc1cc2c(cc1OC)CN(C(=O)c1ccc(-c3ccc(OC(C)C)cc3)o1)CC2		20	38.1	Activity (NCI/ADR-RES [9]): inactive; inhibition (INH) [10]: Active; fold change (FC) [11]: 1.9; inhibition (INH) [12]: Not Active; fold change (FC) [13]: 6.7; inhibition (INH) [14]: Active
COc1cc2c(cc1OC)CN(C(=O)c1ccc(-c3ccc4c(c3)OCO4)o1)CC2		5.4	34	
